Test results taken from patent publication US12605397B2, “Deoxy-cytidine or uridine derivatives for use in cancer therapies” (HEMISPHERIAN AS, priority 2019, dated 2026).
Entries after “also recorded” stand apart in the source; their conditions may differ.

Experiments:
[1] = system: V79 cells; experiment: Survival assay (MTT), V79; type: cell-based; settings: Cricetulus griseus, V79, Chinese Hamster Lung, 72 hours
Experimental: (§1) Cells were passed between 70 and 90% confluence.
(§2) Cells were incubated with the drugs for 72 hours.

[2] = system: H1437 cells; experiment: Survival assay (MTT), H1437; type: cell-based; settings: Homo sapiens, NCI-H1437
Experimental: as §1, §2

[3] = system: H1573 cells; experiment: Survival assay (MTT), H1573; type: cell-based; settings: Homo sapiens, NCI-H1573
Experimental: as §1, §2

[4] = system: Buffy A cells; experiment: Survival assay (MTT), Buffy A; type: cell-based, human; settings: Homo sapiens, Normal, Bone Marrow, 72 hours
Experimental: as §1, §2
(§3) The present inventors further investigated the extent to which these compounds kill normal human cells; low cytotoxicity against normal human cells is advantageous property for anti-cancer agents. The cytotoxicity of these compounds in various normal human cell lines was therefore investigated (Table 3). Cells were grown and the survival assay was performed as described above (Materials and Methods).

[5] = system: Buffy M cells; experiment: Survival assay (MTT), Buffy M; type: cell-based, human; settings: Homo sapiens, Normal, Bone Marrow, 72 hours
Experimental: as §1, §2, §3

[6] = system: human cancer cell lines; experiment: Survival assay, range of human cancer cell lines; type: cell-based; settings: cell lines of Table 1
Experimental: as §2
With the knowledge that 5-formyl-2′-deoxycytidine is cytotoxic to cervical carcinoma (HeLa) cells, the study was expanded in two directions: (i) a further compound was assessed: 5-carboxyl-2′-deoxycytidine; and (ii) their cytotoxic effects against a wide range of human cancer cell lines was assessed (Table 1).

[7] = Multiple MTD, repeated dose; type: in vivo; settings: mice, IP 300, 1000, 2000 mg/kg every three days, 5 doses
Experimental: The test compounds were dosed every three days for a total of 5 doses (q3dx5).
In addition, body weights were recorded before each treatment and at 24, 48 and 72 hours after the final administration.
Mice were injected with the indicated compound at the indicated dose intraperitoneally once every three days for a total of 5 doses.

[8] = system: Hypoxanthine-guanine phosphoribosyltransferase (HPRT) gene in V79 cells; experiment: HPRT mutagenicity assay; type: cell-based, Chinese Hamster; settings: V79 cells, 1, 10, 100 μM, 24 hours
Experimental: HPRT mutagenicity assay was performed in V79 cells. 50,000 V79 cells were treated with three different concentrations of either d5hmC or d5fC (1, 10, 100 μM) for 24 hours in a 6 well plate. DMSO was used as a negative control. After the treatment, the cells were subcultured as needed in T75 flasks for 9 days to allow expression of HPRT-mutants. 10,000 cells were replated into 10 replica Petri dishes (100×15 mm) with selective media (2.5 μg/ml of 6TG).
Survival (relative plating efficiency) was determined by plating 200 cells into four replica Petri dishes (60×15 mm) without selective media. Colonies were fixed, Giemsa-stained and counted 7 days later. The mutant frequency is expressed as a total number of mutants counted on all plates divided by the number of cells seeded corrected by reseeding plating efficiency. Experiment was performed three times, data represent mean of triplicate±SEM.

[9] = system: glioblastoma multiforme; settings: glioblastoma multiforme patients; cited from earlier work

Structure (SMILES) | IC50 [1] | IC50 ([2]; H1437, Lung (metastatic non-small cell adenocarcinoma), 72 hours, MTT) | IC50 ([2]; H1437, Tables 6 and 7, unit inferred) | IC50 ([3]; H1573, Lung (metastatic adenocarcinoma), 72 hours, MTT) | IC50 ([3]; H1573, Tables 6 and 7, unit inferred) | IC50 [4] | IC50 [5] | cytotoxicity in the cancer cell lines evaluated [6] | body weight compared with untreated animals [7] | mutagenicity / genotoxicity (HPRT mutant frequency) [8] | improvement of overall survival [9]
Nc1nc(=O)n([C@H]2C[C@H](O)[C@@H](CO)O2)cc1C=O [2d5fC, 5-formyl-2′-deoxycytidine] | > 25 µM | 5.65 µM | 5.65 µM | 7.72 µM | 7.72 µM | > 25 µM | > 25 µM | cytotoxic to a wide range of human cancer cells | not statistically different | not to be mutagenic; also recorded: not mutagens | 
Nc1nc(=O)n([C@H]2C[C@H](O)[C@@H](CO)O2)cc1CO [2d5hmC, 5-hydroxymethyl-2′-deoxycytidine] | > 25 µM |  |  |  |  | > 25 µM | > 25 µM | only cytotoxic to two cell lines evaluated | not statistically different | not to be mutagenic; also recorded: not mutagens | 
Cn1nnc2c(C(N)=O)ncn2c1=O [Temozolomide, 4-methyl-5-oxo-2,3,4,6,8-pentazabicyclo[4.3.0]nona-2,7,9-triene-9-carboxamide, reference compound] |  |  |  |  |  |  |  |  |  |  | 2.5 months
